Results from patent publication US12202835B2, “Substituted aromatic ring-linked dioxinoquinazolines and dioxinoquinolines as kinase inhibitors” (BEIJING SCITECH-MQ PHARMACEUTICALS LIMITED, priority 2018, dated 2025).

Columns and labels:
TRKA kinase = TRKA kinase (Homo sapiens (Human), UniProt P04629); experiment: Assay of small molecular compounds for inhibiting the activity of TRKA kinase (LANCE TR-FRET); type: biochemical
Outline: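 LANCE TR-FRET with ULight-TK peptide; compounds pre-incubated 5 min with TRKA (2× solution 2 nM), then substrate/ATP added (4× mix: 400 nM peptide, 40 μM ATP). Reaction 60 min at room temperature in dark, 1% DMSO final; stopped, detection developed 60 min, signal read.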

c-MET kinase = c-MET kinase (Homo sapiens (Human), UniProt P08581); experiment: Assay of small molecular compounds for inhibiting the activity of c-MET kinase (LANCE TR-FRET); type: biochemical; settings: read-out: CMET IC50
Outline: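 LANCE TR-FRET assay with c-MET at 1 nM final after a 5 min room-temperature preincubation with compound (11-point, 3-fold series, 2500–0.042 nM final, 4% DMSO). ULight-JAK-1 (Tyr1023) peptide (100 nM final) and ATP (10 μM final) reacted 60 min in the dark. Inhibition was taken relative to controls, then IC50 fitted.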

Ba/F3-AXL cells = experiment: Assay for inhibiting the proliferation of Ba/F3-AXL cells (CCK-8); type: cell-based; settings: 72 hours of incubation, medium with 100 ng/mL hGas6, CCK-8
Method: The values were then imported into Graphpad Prism 5 software for curve fitting, and IC50 was calculated.

MHCC97H cells = experiment: Assay for inhibiting the proliferation of MHCC97H cells (CCK-8); type: cell-based; settings: Homo sapiens
Outline: (§1)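 Cells seeded in 96-well plates overnight, then exposed 72 h to 9 three-fold dilutions of compound (0.25% DMSO final). Viability by CCK-8 (1-2 h at 37° C., OD 450 nm), survival normalized to untreated and cell-free blanks; IC50 by curve fitting.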

EBC1 cells = experiment: Assay for inhibiting the proliferation of EBC1 cells (CCK-8); type: cell-based; settings: Homo sapiens, EBC-1
Outline: as §1

Sequence of TRKA kinase (P04629 33-796): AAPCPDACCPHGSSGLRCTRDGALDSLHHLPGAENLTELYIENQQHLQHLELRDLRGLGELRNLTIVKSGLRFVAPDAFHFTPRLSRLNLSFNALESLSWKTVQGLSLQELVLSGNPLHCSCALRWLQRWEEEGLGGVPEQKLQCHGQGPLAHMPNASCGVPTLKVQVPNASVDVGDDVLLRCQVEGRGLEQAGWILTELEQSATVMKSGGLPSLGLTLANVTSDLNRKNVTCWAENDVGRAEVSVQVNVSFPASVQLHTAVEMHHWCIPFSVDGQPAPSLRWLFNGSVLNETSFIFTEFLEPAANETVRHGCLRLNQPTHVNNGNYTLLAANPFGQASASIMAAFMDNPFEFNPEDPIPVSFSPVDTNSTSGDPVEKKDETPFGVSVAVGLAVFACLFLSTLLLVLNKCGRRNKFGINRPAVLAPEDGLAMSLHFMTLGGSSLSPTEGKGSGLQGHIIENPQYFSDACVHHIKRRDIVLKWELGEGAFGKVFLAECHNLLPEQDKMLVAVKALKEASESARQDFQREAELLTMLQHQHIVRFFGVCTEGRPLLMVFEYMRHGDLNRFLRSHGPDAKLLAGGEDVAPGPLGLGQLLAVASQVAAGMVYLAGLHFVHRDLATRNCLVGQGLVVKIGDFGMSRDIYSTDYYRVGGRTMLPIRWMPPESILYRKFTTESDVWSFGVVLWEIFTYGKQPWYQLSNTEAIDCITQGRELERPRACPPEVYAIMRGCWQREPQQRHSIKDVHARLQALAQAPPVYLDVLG
Sequence of c-MET kinase (P08581 25-1390): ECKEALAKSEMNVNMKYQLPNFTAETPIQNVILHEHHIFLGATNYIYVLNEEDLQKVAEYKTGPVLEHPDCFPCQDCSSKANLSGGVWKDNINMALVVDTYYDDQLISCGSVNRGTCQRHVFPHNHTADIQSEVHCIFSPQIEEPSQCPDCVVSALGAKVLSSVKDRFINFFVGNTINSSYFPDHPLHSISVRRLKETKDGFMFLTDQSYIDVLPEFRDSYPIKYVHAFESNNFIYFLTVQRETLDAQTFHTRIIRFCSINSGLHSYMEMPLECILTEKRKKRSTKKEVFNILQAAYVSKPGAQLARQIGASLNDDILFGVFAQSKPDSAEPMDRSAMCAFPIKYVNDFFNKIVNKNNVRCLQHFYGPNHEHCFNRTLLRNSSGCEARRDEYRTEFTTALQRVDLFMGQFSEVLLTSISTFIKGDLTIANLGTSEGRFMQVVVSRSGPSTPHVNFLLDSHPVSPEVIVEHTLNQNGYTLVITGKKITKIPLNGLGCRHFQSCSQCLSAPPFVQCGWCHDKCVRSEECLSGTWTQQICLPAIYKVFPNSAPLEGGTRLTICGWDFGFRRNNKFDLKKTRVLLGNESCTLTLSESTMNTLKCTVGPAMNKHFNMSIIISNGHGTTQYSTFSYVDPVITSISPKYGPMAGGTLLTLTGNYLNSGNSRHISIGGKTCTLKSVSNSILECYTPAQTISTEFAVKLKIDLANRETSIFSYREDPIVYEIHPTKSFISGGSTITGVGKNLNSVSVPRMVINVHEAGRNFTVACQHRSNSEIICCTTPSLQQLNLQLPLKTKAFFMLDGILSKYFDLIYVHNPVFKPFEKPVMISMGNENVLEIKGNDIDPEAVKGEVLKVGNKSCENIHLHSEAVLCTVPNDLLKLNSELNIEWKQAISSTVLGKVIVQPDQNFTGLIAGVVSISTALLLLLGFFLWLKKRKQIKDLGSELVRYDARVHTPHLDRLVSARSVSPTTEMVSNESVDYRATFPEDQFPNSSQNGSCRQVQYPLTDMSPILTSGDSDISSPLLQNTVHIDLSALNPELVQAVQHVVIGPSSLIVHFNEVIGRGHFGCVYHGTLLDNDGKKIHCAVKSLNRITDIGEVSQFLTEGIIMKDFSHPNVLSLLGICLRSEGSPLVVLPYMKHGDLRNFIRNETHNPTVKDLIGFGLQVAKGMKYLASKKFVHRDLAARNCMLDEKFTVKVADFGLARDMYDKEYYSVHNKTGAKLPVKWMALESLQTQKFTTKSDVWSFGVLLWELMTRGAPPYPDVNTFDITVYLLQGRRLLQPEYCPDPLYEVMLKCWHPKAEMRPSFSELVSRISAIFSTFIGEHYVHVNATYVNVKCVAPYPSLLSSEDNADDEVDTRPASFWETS

Row | SMILES | IC50 (TRKA kinase) [nM] | IC50 (c-MET kinase) [nM] | IC50 (Ba/F3-AXL cells) [nM] | IC50 (MHCC97H cells) [nM] | IC50 (EBC1 cells) [nM]
1 | CN1CCN(CCCOc2cc3nccc(Oc4ccc(NC(=O)c5cn(C)c(=O)n(-c6ccc(F)cc6)c5=O)cc4F)c3c3c2OCCO3)CC1 [Example 74, N-(3-fluoro-4-((5-(3-(4-methylpiperazin-1-yl)propoxy)-2,3-dihydro-[1,4]dioxino[2,3-f]quinolin-10-yl)oxy)phenyl)-3-(4-fluorophenyl)-1-methyl-2,4-dioxo-1,2,3,4-tetrahydropyrimidine-5-carboxamide] | < 50 | ≤ 50 | < 50 | 50 to 200 | ≤ 50
2 | COCCCOc1cc2nccc(Oc3ccc(NC(=O)c4cn(C)c(=O)n(-c5ccc(F)cc5)c4=O)cc3F)c2c2c1OCCO2 [Example 80, N-(3-fluoro-4-((5-(3-methoxypropoxy)-2,3-dihydro-[1,4]dioxino[2,3-f]quinolin-10-yl)oxy)phenyl)-3-(4-fluorophenyl)-1-methyl-2,4-dioxo-1,2,3,4-tetrahydropyrimidine-5-carboxamide] | < 50 | ≤ 50 | < 50 | ≤ 50 | ≤ 50
